Assay results reported in the Biogen ADME set (Fang et al. 2023).
≈ marks a conversion by molar mass, not a printed value.

Details: for aqueous solubility: pH 6.8

| SMILES | MDR1-MDCK efflux ratio | intrinsic clearance, human liver microsomes | intrinsic clearance, rat liver microsomes | aqueous solubility | fraction unbound, human plasma | fraction unbound, rat plasma |
| --- | --- | --- | --- | --- | --- | --- |
| CC1(C)OCCn2c1nc1c(N3CCOCC3)nc(-c3cnc(N)nc3)nc12 | 1.31 | 6.14 mL/min/kg | 26 mL/min/kg | 6.44 µg/mL (≈ 16.8 µM) | – | – |
| Cc1ccc2cc(C(=O)N(C)CCC#N)[nH]c2c1 | – | 61.8 mL/min/kg | 122 mL/min/kg | 4 µg/mL (≈ 16.6 µM) | – | – |
| CC(C)(C)Cc1nnc(-c2cnc3onc(C4CCCC4)c3c2)o1 | – | – | – | 3.99 µg/mL (≈ 12.2 µM) | – | – |
| COc1cc2c(cc1OC)CC(=O)N(CCCN(C)C[C@H]1Cc3cc(OC)c(OC)cc31)CC2 | 73.8 | 36.7 mL/min/kg | 163 mL/min/kg | 65.8 µg/mL (≈ 140 µM) | 0.538 | 0.412 |
| O=S(=O)(Cc1csc(C2CCCC2)n1)C1CCCC1 | 0.538 | 92.7 mL/min/kg | 2190 mL/min/kg | 34.9 µg/mL (≈ 116 µM) | – | – |
| C#CCNC(=O)CN1CCCN(C(=O)c2cccc(C)n2)CC1 | 32.5 | ≤ 4.74 mL/min/kg | 15.7 mL/min/kg | 36.5 µg/mL (≈ 116 µM) | – | – |
| Cc1cccc(C)c1OCC(=O)N(C)[C@@H]1CC[C@@H](N2CCOCC2)[C@@H]1O | – | 6.43 mL/min/kg | 104 mL/min/kg | – | – | – |
| Cc1nc2n(c1CN1CCN(c3ncccn3)CC1)CCCC2 | 7.45 | 29.1 mL/min/kg | 1180 mL/min/kg | – | – | – |
| CC(C)N1CCN(CCCSc2ccccn2)CC1 | 0.74 | 128 mL/min/kg | 1080 mL/min/kg | – | – | – |
| Cc1cc(-c2nc(N(C)C)no2)cc(O)n1 | 0.726 | ≤ 4.74 mL/min/kg | 31.7 mL/min/kg | – | – | – |
| C=CC(=O)N1C[C@H](Nc2ncnc3[nH]ccc23)CC[C@@H]1C | 65.6 | ≤ 4.74 mL/min/kg | 27.3 mL/min/kg | 53.7 µg/mL (≈ 188 µM) | 0.673 | 0.557 |
| CC(C)(C)NC(=O)NCCn1nc2c(cc1=O)CCCC2 | 67 | 12.1 mL/min/kg | 105 mL/min/kg | 47.5 µg/mL (≈ 162 µM) | – | – |
| COCCCNc1ncc(-c2ccsc2)c(-c2nc(C)c(C)s2)n1 | – | 23.6 mL/min/kg | 98.1 mL/min/kg | – | – | – |
| Cc1nc(N(C)C)nc(C)c1NC(=O)C1CCCCC1 | 0.656 | 6.25 mL/min/kg | 75.4 mL/min/kg | 49.3 µg/mL (≈ 179 µM) | – | – |
| CC(C)[C@@](C)(O)[C@@H]1CN(c2nc(-c3n[nH]c4ncccc34)c(F)cc2Cl)CCN1 | – | – | – | – | 0.201 | 0.0419 |
| CCOc1ccccc1CNCCc1c[nH]c2ccccc12 | 3.34 | 127 mL/min/kg | 2170 mL/min/kg | 39.6 µg/mL (≈ 135 µM) | – | – |
| Cc1cc(Nc2nc(N[C@@H](C)c3ncc(F)cn3)ncc2Cl)n[nH]1 | 10.5 | 8.47 mL/min/kg | 46.3 mL/min/kg | – | – | – |
| Cc1ccc2oc(C(=O)N3CC[C@H](O)[C@@H](N4CCOCC4)CC3)cc2c1 | 2.46 | 16.6 mL/min/kg | 1260 mL/min/kg | – | – | – |
| Cc1nc(N2CCn3ccnc3C2)c2cnn(C)c2n1 | 3.63 | 10.5 mL/min/kg | ≤ 10.7 mL/min/kg | 32.9 µg/mL (≈ 122 µM) | – | – |
| COc1ccccc1/C=C/CN1C[C@H]2CCCN2C[C@@H]1C | 0.741 | 16.8 mL/min/kg | 1450 mL/min/kg | – | – | – |
| CN(CC1CCC1)C(=O)C1CCN(c2ccc3nncn3n2)CC1 | 11.6 | 7.72 mL/min/kg | 126 mL/min/kg | – | – | – |
| Cc1nccc(N(C)Cc2ccc(N)nc2)n1 | 4.39 | ≤ 4.74 mL/min/kg | ≤ 10.7 mL/min/kg | – | – | – |
| COCc1nn(CCCN2CCCCC2)c(=O)o1 | 0.662 | ≤ 4.74 mL/min/kg | 370 mL/min/kg | – | – | – |
| COCCCNc1ncc(-c2cc(C)no2)c(C(C)C)n1 | 0.439 | 33.4 mL/min/kg | 5960 mL/min/kg | – | – | – |

Next, values leading:

| MDR1-MDCK efflux ratio | intrinsic clearance, human liver microsomes | intrinsic clearance, rat liver microsomes | aqueous solubility | fraction unbound, human plasma | fraction unbound, rat plasma | SMILES |
| --- | --- | --- | --- | --- | --- | --- |
| 1.29 | 40.6 mL/min/kg | 151 mL/min/kg | 44.2 µg/mL (≈ 124 µM) | – | – | Fc1ccc(F)c2c(NCc3ccc(N4CCOCC4)nc3)ccnc12 |
| 11.9 | ≤ 4.74 mL/min/kg | 126 mL/min/kg | 42.4 µg/mL (≈ 153 µM) | – | – | CC(=O)Nc1cccc(OCC(=O)N2CCCCC2)c1 |
| 2.45 | 32.6 mL/min/kg | 776 mL/min/kg | – | – | – | O=C(CC/C=C/c1ccccc1)Nc1ccccc1N1CCOC1=O |
| 11.8 | ≤ 4.74 mL/min/kg | 57.3 mL/min/kg | – | – | – | CNC(=O)Cc1cccc(OCCN2CCCCC2)c1 |
| 10.6 | 131 mL/min/kg | 2020 mL/min/kg | – | – | – | O=C(CC1c2ccccc2CCc2ccccc21)NCCN1CCOCC1 |
| – | ≤ 4.74 mL/min/kg | 145 mL/min/kg | – | – | – | O=C1CCC(=O)N1Cc1nc(Cc2ccccc2)cs1 |
| – | – | – | 2.15 µg/mL (≈ 6.82 µM) | – | – | CC(Sc1nc2c(cnn2-c2ccccc2)c(=O)[nH]1)C(N)=O (centres undefined) |
| 1.08 | 150 mL/min/kg | 960 mL/min/kg | 51.7 µg/mL (≈ 159 µM) | – | – | CC(C(O)c1ccc(O)cc1)N1CCC(Cc2ccccc2)CC1 (centres undefined) |
| – | ≤ 4.74 mL/min/kg | 479 mL/min/kg | – | – | – | Cc1ccc(C(=O)N(C)Cc2ccccn2)c(O)c1 |
| – | 356 mL/min/kg | 557 mL/min/kg | – | – | – | N#Cc1ccc(-c2cccc(CN)c2)s1 |
| 0.134 | 159 mL/min/kg | 451 mL/min/kg | 45 µg/mL (≈ 128 µM) | – | – | CCOc1ccc(Nc2nc(-c3c(C)nc4ccccn34)cs2)cc1 |
| 39.1 | 9.49 mL/min/kg | 108 mL/min/kg | 90.4 µg/mL (≈ 173 µM) | – | – | COc1cccc(OC)c1-c1cc(C(=O)N[C@@H](CC(C)C)C(=O)O)nn1-c1ccnc2cc(Cl)ccc12 |
| 7 | ≤ 4.74 mL/min/kg | ≤ 10.7 mL/min/kg | 43.1 µg/mL (≈ 151 µM) | – | – | O=C(c1ccc(O)nc1)N1CCN(c2ncccn2)CC1 |
| 0.826 | 37.9 mL/min/kg | 315 mL/min/kg | 5.19 µg/mL (≈ 14.6 µM) | – | – | CC1CCN(CC(=O)Nc2nc(-c3c[nH]c4ccccc34)cs2)CC1 |
| 0.471 | 276 mL/min/kg | 1260 mL/min/kg | – | – | – | CCCc1ccc(C(=O)CSc2nncs2)cc1 |
| 2.14 | – | – | 47.5 µg/mL (≈ 160 µM) | – | – | Cc1cc2ccccc2n1CC(=O)N(C)Cc1cnn(C)c1 |
| 0.961 | 10.2 mL/min/kg | 40.3 mL/min/kg | 60.8 µg/mL (≈ 216 µM) | – | – | O=C(Nc1ccccc1-n1ccnc1)c1ccc(F)cc1 |

| MDR1-MDCK efflux ratio | intrinsic clearance, human liver microsomes | intrinsic clearance, rat liver microsomes | aqueous solubility | fraction unbound, human plasma | fraction unbound, rat plasma | SMILES |
| --- | --- | --- | --- | --- | --- | --- |
| 0.675 | 51.4 mL/min/kg | 2130 mL/min/kg | 33.7 µg/mL (≈ 112 µM) | 0.133 | 0.161 | Cc1nccc(-c2cn(Cc3ccccc3)c3cnccc23)n1 |
| 1.08 | 5.37 mL/min/kg | 26.5 mL/min/kg | 32.8 µg/mL (≈ 152 µM) | – | – | COc1ccc(C)cc1-c1cccnc1O |
| – | ≤ 4.74 mL/min/kg | ≤ 10.7 mL/min/kg | – | – | – | Cn1c(=O)cc(N2CCC[C@@H](N)C2)n(Cc2cc(F)ccc2C#N)c1=O |
| 0.179 | 35.7 mL/min/kg | 305 mL/min/kg | 2.34 µg/mL (≈ 7.92 µM) | – | – | Cc1csc(NC(=O)c2ccc(-c3ccncc3)cc2)n1 |
| 0.812 | 10.4 mL/min/kg | 263 mL/min/kg | – | – | – | COCCc1noc(CN(C)C(=O)c2ccc3c(c2)CCC3)n1 |
| 1.66 | 5.49 mL/min/kg | 30.7 mL/min/kg | 151 µg/mL (≈ 500 µM) | – | – | CN(C)[C@@H]1CN(C(=O)CCn2cnc3ccccc32)C[C@H]1O |
| – | – | – | 39.1 µg/mL (≈ 144 µM) | – | – | Cc1noc2nc(-c3ccccc3F)cc(C(=O)O)c12 |
| 1.51 | 15 mL/min/kg | 68.4 mL/min/kg | 40 µg/mL (≈ 138 µM) | – | – | Cn1cc(CCNC(=O)N2CCc3sccc3C2)cn1 |
| 83.5 | 559 mL/min/kg | 1320 mL/min/kg | 49 µg/mL (≈ 112 µM) | – | – | c1csc(-c2csc3nc(CN4CCOCC4)nc(N4CCc5[nH]ncc5C4)c23)c1 |
| 1.16 | 43 mL/min/kg | 2030 mL/min/kg | – | – | – | CN1CCC(Cc2cccc(-c3nccs3)n2)C1 (centres undefined) |
| 0.425 | ≤ 4.74 mL/min/kg | ≤ 10.7 mL/min/kg | 69.3 µg/mL (≈ 229 µM) | – | – | CC(C)Cc1sc(N)nc1-c1ccc(P(=O)(O)O)o1 |
| 0.976 | 71.6 mL/min/kg | 1150 mL/min/kg | 1.31 µg/mL (≈ 3.67 µM) | – | – | O=C(CCCc1nnc(-c2ccccc2)o1)Nc1cccc2ccccc12 |
| – | 21.3 mL/min/kg | 188 mL/min/kg | – | – | – | CCc1nc2ccccc2n1CC(=O)Nc1cnc2ccccc2c1 |
| 0.581 | – | – | 0.96 µg/mL (≈ 3.79 µM) | – | – | c1ccc2c(c1)nnn2Cc1ccc2c(c1)OCO2 |
| 16.7 | 134 mL/min/kg | 2500 mL/min/kg | – | – | – | CC(C)N(C)S(=O)(=O)NCCCc1nc2cc(Cl)ccc2[nH]1 |
| 0.438 | – | – | 0.35 µg/mL (≈ 1.06 µM) | – | – | Cc1nc(-c2ccccc2)c(C(=O)Nc2ccc(Cl)cc2)s1 |
| 10.9 | 25 mL/min/kg | 594 mL/min/kg | 65.1 µg/mL (≈ 161 µM) | – | – | COc1ccc(Nc2nc(N)nc(CN3CCN(Cc4ccccc4)CC3)n2)cc1 |
